Assay results taken from US6465527B1, “Iodinated hydrocarbon pesticide” (priority 1999, dated 2002).
Like-named read-outs stand apart in the source and are kept apart here.

Key:
Assay type in all cases: in vivo
[1] = system: German cockroach, Blattella germanica (L.); assay: Fumigant toxicity in sealed glass jar, German cockroach; details: 30-60 adult males; for mortality at 50 µL/jar: Blattella germanica, inhaled or nasal
Procedure: (§1) As shown below, Table 1 depicts the toxicity of both monoiodinated and diiodinated hydrocarbons to both the German and the American cockroach after 1 hour of exposure.
(§2) Shown in Table 2 is the toxicity of both monoiodinated and diiodinated hydrocarbons to the German and American cockroach and the Cowpea weevil after 24 hours of exposure.
(§3) In this experiment both the insecticidal and nematicidal properties of iodinated hydrocarbons were compared. In determining the insecticidal properties of the iodinated hydrocarbons, both American (Periplaneta americana) and German (Blattella germanica) cockroaches were used. Groups of cockroaches were confined in 0.95-liter glass jars with a small cotton ball. Exactly 50 μl of a test chemical was applied to the cotton ball and the jar was sealed. Knockdown, defined as the inability to walk in a coordinated manner, and mortality were assessed every 15 minutes for the first hour and hourly thereafter for 8 hours and again after 24 hours.

[2] = system: American cockroach, Periplaneta americana (L.); assay: Fumigant toxicity in sealed glass jar, American cockroach; details: 8-36 adult males; for mortality at 50 µL/jar: Periplaneta americana, inhaled or nasal
Procedure: as §1, §2, §3

[3] = system: Cowpea weevil, Callosobruchus maculatus (F.); assay: Fumigant toxicity, Cowpea weevil; design: concentration or dose not given beside the values; details: 30 adults
Procedure: as §2

[4] = system: American (Periplaneta americana) and German (Blattella germanica) cockroaches; assay: Knockdown and mortality of cockroaches in sealed jar (both species); details: for Sensitivity of American cockroaches compared with German cockroaches: in vivo; for Knockdown of cockroaches: within 1 hour after treatment, 50 μl on cotton ball in sealed 0.95-liter jar
Procedure: as §3, with “sealed.” for “sealed. Knockdown, defined as the inability to walk in a coordinated manner, and mortality were assessed every 15 minutes for the first hour and hourly thereafter for 8 hours and again after 24 hours.”

Heterodera glycines = assay: Greenhouse nematicide test, diiodinated C2-C8 hydrocarbons in infested field soil (Experiments 1 and 2); details: rates ≧5.0 mg
Procedure: (§4) Additionally, the nematicidal properties of iodinated hydrocarbons were investigated in greenhouse experiments with field soil infested with Meloidogyne arenaria and Heterodera Glycines. Chemicals were added directly to infested solid at rates <100 mg/Kg soil. Treated soil was kept moist (approximately 60 percent field capacity) and uncovered for 7-10 days when samples were collected, and the pots were planted with ‘Brim’ soybean, Glycine max. […] 1,2-diiodoethane (C2), 1,3-diiodopropane (C3), 1,4-diiodobutane (C4), 1,5-diiodopentane (C5), 1,6-diiodohexane (C6), and […] were applied to soil rates of 2.5, 5.0, 7.5, and 10 mg/Kg soil. All rates of C2 and C8 were ineffective in reducing M. arenaria juvenile (J2) populations in preplant samples. This was also true for C2 and J2 populations of H. glycines; however, […] rates ≧5.0 mg suppressed J2 populations of H. glycines. […] H. glycines J2 numbers in final soil samples were generally inversely related to rates for C3-C8. […] Applications of C3-C6 to soil increased shoot weights in a manner directly related to dosages but only in a curvilinear pattern.
(§5) In this experiment, the nematicidal properties of various diiodinated hydrocarbons were compared. The nematicidal properties of diiodinated C2-C8 normal hydrocarbons was assessed in a greenhouse experiment with field soil infested with Meloidogyne arenaria [Ma] and Heterodera glycines [Hg]. 1,2-diiodoethane [C2], 1,3-diiodopropane [C3], 1,4-diiodobutane [C4], 1.5-diiodopentane [C5], 1,6-diiodohexane [C6] and 1,8-diiodooctane [C8] were applied to soil at rates of 2.5, 5.0, 7.5, and 10.0 mgs/kg soil. The potted soil was kept moist in a greenhouse for 10 days when preplant samples were collected for analysis, and the pots were planted with ‘Brim’ soybean [Glycine max]. After 7 weeks of growth, the plants were removed and final soil samples taken. Data was collected on weights of fresh roots and shoots, root galling by Ma, and numbers of nematodes in soil and roots. All rates of C2 and C8 were ineffective in reducing Ma juvenile [J2] populations in the preplant samples. This was also true for C2 and J2 populations of Hg; however, C8 rates ≧5.0 mg suppressed J2 populations of Hg. […] Hg J2 numbers in final soil samples were generally inversely related to rates for C3-C8. This pattern of suppression in J2 numbers was also applicable to Ma in the final soil samples but only for C3-C6. […] Applications of C3-C6 to soil increased shoot weights in a manner directly related to dosages but non-linear in pattern.

Meloidogyne arenaria = assay: as above; details: for M. arenaria J2 populations in preplant samples: rates ≧5.0 mg
Procedure: as §4, §5

[5] = system: 'Brim' soybean [Glycine max]; assay: Soybean growth in treated soil (Experiments 1 and 2)
Procedure: as §4, §5

[6] = system: cyst [Heterodera glycines]; assay: Greenhouse nematicide test, iodinated C1-C3 hydrocarbons (Experiment 4); details: 10 days after application; all dosages (0.1, 0.2, 0.4 ml/kg soil)
Procedure: (§6) In this experiment, the nematicidal properties of low molecular weight iodinated hydrocarbons were investigated. The nematicidal properties of iodinated C1-C3 hydrocarbons were evaluated in greenhouse experiments with field soil infested with root-knot [Meloidogyne arenaria] and cyst [Heterodera glycines] nematodes. lodomethane, di-iodomethane, iodoethane, di-iodoethane, and 1-iodopropane were added to soil at rates of 0.1, 0.2 and 0.4 ml/kg soil.
(§7) The treated soil was kept moist for 10 days when soil samples were taken for nematode analysis and ‘Brim’ soybean [Glycine max] planted. Soybeans were allowed to grow for 8 weeks and then were removed from the soil to determine plant growth, root-knot indices and the number of galls generated by M arenaria. […] All compounds except 1-iodopropane increased fresh shoot weight when applied at ≧0.1 ml/kg soil.

[7] = system: root-knot [Meloidogyne arenaria]; assay: as above; details: for M. arenaria [J2] juvenile populations in soil: 10 days after application, all rates (0.1, 0.2, 0.4 ml/kg soil)
Procedure: as §6, §7

[8] = 1 h exposure, read-out: % Mortality after 1 h exposure, German cockroach
[9] = 24 h exposure, read-out: % Mortality after 24 h exposure, German cockroach
[10] = 1 h exposure, read-out: % Mortality after 1 h exposure, American cockroach
[11] = 24 h exposure, read-out: % Mortality after 24 h exposure, American cockroach

SMILES | mortality at 50 µL/jar [1, 8] | mortality at 50 µL/jar [1, 9] | mortality at 50 µL/jar [2, 10] | mortality at 50 µL/jar [2, 11] | % Mortality after 24 h exposure, Cowpea weevil [3] | Sensitivity of American cockroaches compared with German cockroaches [4] | H. glycines J2 populations in preplant samples (Heterodera glycines) | M. arenaria J2 populations in preplant samples (Meloidogyne arenaria) | Knockdown of cockroaches [4] | H. glycines J2 populations in soil [6] | further results
ICCCCCI [1,5-diiodopentane] | 0% | 0% | 11% | 0% | 37% | more sensitive | virtually eliminated | virtually eliminated |  |  | 
ICCCCCCI [1,6-diodohexane, 1,6-diiodohexane] | 0% | 0% | 5% | 0% | 0% | more sensitive | virtually eliminated | virtually eliminated |  |  | 
ICCCCCCCCI [1,8-diiodooctane] | 0% | 0% | 0% | 0% | 0% |  | suppressed |  |  |  | M. arenaria juvenile (J2) populations in preplant samples (Meloidogyne arenaria; all rates (2.5, 5.0, 7.5, 10 mg/Kg soil)): ineffective; M. arenaria J2 numbers in final soil samples (Meloidogyne arenaria; final soil samples after soybean growth, rates 2.5-10 mg/kg soil): did not change significantly; Shoot weights of soybean ([5]; 2.5 mg rate): increased shoot weights slightly; Shoot weights of soybean ([5]; rates higher than 2.5 mg): no significant effect
CCCI [1-iodopropane] |  |  |  |  | 97% |  |  |  | 100% | ineffective | % Mortality after 1 h exposure, German cockroach ([1]; 1 h exposure): 100%; % Mortality after 24 h exposure, German cockroach ([1]; 24 h exposure): 100%; % Mortality after 1 h exposure, American cockroach ([2]; 1 h exposure): 100%; % Mortality after 24 h exposure, American cockroach ([2]; 24 h exposure): 100%; M. arenaria [J2] juvenile populations in soil ([7]; listed as 1 iodopropane): ineffective; M. arenaria [J2] juvenile populations in soil ([7]; listed as iodopropane): increased directly; Root galling (root knot) by M. arenaria ([7]; soybean after 8 weeks, rates 0.1-0.4 ml/kg soil): no significant effect
CCI [iodoethane] | 100% | 100% | 100% | 100% | 100% |  |  |  | 100% | ineffective | M. arenaria [J2] juvenile populations in soil [7]: ineffective; Gall formation by M. arenaria ([7]; applied at ≧0.2 ml/kg soil): Significant suppression
IC(I)=C(I)I [tetraiodoethylene] | 0% | 3% | 0% | 0% | 0% |  |  |  |  |  | 
